ChEMBL document CHEMBL1268854, “A Bisindole Alkaloid with Hedgehog Signal Inhibitory Activity from the Myxomycete Perichaena chrysosperma” (J Nat Prod, 2010)

What was measured:
[1] = Inhibition of hedgehog signaling pathway in human HaCaT cells assessed as inhibition of GLI1-mediated transcriptional activity; type: cell-based
[2] = Cytotoxicity against mouse C3H10T1/2 cells after 24 hrs; type: cell-based; settings: C3H 10T1/2, 24 h
DU-145 = assay: Cytotoxicity against human DU145 cells after 24 hrs; type: functional, cell-based; settings: DU-145, 24 h
PANC-1 = assay: Cytotoxicity against human PANC1 cells after 24 hrs; type: functional, cell-based; settings: PANC-1, 24 h

## COC1NC(=O)c2c1c1c3ccccc3[nH]c1c1[nH]c3cc(O)ccc3c21 (centres undefined)
[1]
  IC50: 4.6 µM
[2]
  IC50: > 14 µM
DU-145
  IC50: 4.2 µM
PANC-1
  IC50: 5 µM
